Test results: article PMC8540642, “Antineoplastic Activity of Rhus trilobata Nutt. (Anacardiaceae) against Ovarian Cancer and Identification of Active Metabolites in This Pathology” (Plants, 2021)
pIC50: −log10 of the molar value. In brackets after ≈: the same amount, converted by molar mass. Several values for one entry are separate records, joined by “and”; a condition that tells them apart may be missing. Equal entries are not always repeated. Where two headings read alike, the source gives them in different places.

What was measured:
[1] = Morphometric analysis of liver and kidneys in treated Nu/Nu mice; assay type: in vivo
Description: (§1) Computed axial tomography (CAT) was performed with a Somatom Emotion™ (Siemens™) with animals in supine decubitus, full-body, and craniocaudal directions. The sequences and parameters used in the study were modifications based on the ExtrHR protocol. Ultrasonography (USG) was performed in an ultrasound system (LogiQ™ P7, General Electric-Healthcare®, Chicago, IL, USA), with real-time image, skeletal muscle preset, and Doppler application. Determination of paraclinical and histopathological studies such as hematic biometry, blood chemistry, and pathological lesions in liver, kidneys, and tumor were performed according to the protocol described by Varela-Rodríguez et al..

[2] = Paraclinical studies (blood chemistry, hematic biometry) and bodyweight in treated Nu/Nu mice; assay type: in vivo; conditions: 28 days treatment
Description: Nu/Nu mice were used to determine the antineoplastic activity of RHTR (20 female, 25 ± 5 g weight, and 6-8 weeks old). […] Mice were xenotransplanted subcutaneously on the right flank with 5 × 10^6 SKOV-3 cells. […] Four weeks post-xenotransplantation, rodents were treated daily with 200 mg/kg/i.p. of AE, AF02, or controls for another 28 days. Finally, each week, we evaluated (i) bodyweight with an electronic bascule (CS200, Ohaus®, Parsippany, NJ, USA) and (ii) tumoral lesions with a Vernier caliper (Truper®, Jilotepec, Edo. de México, M.X.).
as §1

[3] = tested on: SKOV-3 cells xenotransplant; assay: Antineoplastic activity in Nu/Nu mice with subcutaneous SKOV-3 xenotransplant; assay type: in vivo; parameters: key to Vascularity of tumor lesion / Fibrosis of tumor lesion: +, present; +++, abundant
Description: Nu/Nu mice were used to determine the antineoplastic activity of RHTR (20 female, 25 ± 5 g weight, and 6-8 weeks old). Mice were maintained in sterile conditions (25 ± 1 °C, and 12 h light/dark cycles) and ad libitum access to food (LabDiet®, Richmond, IN, USA) or water in UPEAL (CINVESTAV-IPN). The Institutional Ethics Committee approved all procedures (No. 184-16), following the Official Mexican Regulations: NOM-062-ZOO-1999 [31] and the International Guidelines (see Appendix A, NC3Rs ARRIVE Guidelines Checklist). Mice were xenotransplanted subcutaneously on the right flank with 5 × 10^6 SKOV-3 cells. The development of tumor lesions was monitored for 28 days (≈50 mm^3). Four weeks post-xenotransplantation, rodents were treated daily with 200 mg/kg/i.p. of AE, AF02, or controls for another 28 days. Finally, each week, we evaluated (i) bodyweight with an electronic bascule (CS200, Ohaus®, Parsippany, NJ, USA) and (ii) tumoral lesions with a Vernier caliper (Truper®, Jilotepec, Edo. de México, M.X.). At the end of treatments, mice were anesthetized with 0.1575 mg/250 μL 1× PBS (v/v, i.p.) of pentobarbital sodium (PiSA®, Guadalajara, Jal., M.X.) for the subsequent analyses (Figure 5).
as §1

SKOV-3 cells = assay: MTT cell viability, dose-response curves 24 h; assay type: cell-based, human; conditions: for IC50 / pIC50: read-out: IC50 (half-maximal inhibitory concentration), SKOV-3; for pIC50: value in brackets
Description: (§2) Cultures (2 × 10^4 cells/well) were seeded with 200 μL of supplemented medium (Sigma®) in 96-well plates (Corning®, Corning, NY, USA) and incubated for 24 h. Cell treatments were 5-200 μg/mL of samples/controls for 24 h. At the end of the treatments, we added MTT (5 mg/mL, Sigma®) for 4 h of incubation, and optical density was measured at λ = 590 nm in a VariosKan® Flash (Thermo-Scientific®, Waltham, MA, USA). The half-maximal inhibitory concentration (IC50) was determined.

CACO-2 cells = assay: MTT cell viability, dose-response curves 24 h; assay type: cell-based; conditions: for IC50 / pIC50: read-out: IC50 (half-maximal inhibitory concentration), CACO-2; for pIC50: value in brackets
Description: as §2

BEAS-2B cells = assay: MTT cell viability, dose-response curves 24 h; assay type: cell-based
Description: as §2

CHO-K1 cells = assay: MTT cell viability, dose-response curves 24 h; assay type: cell-based; conditions: for IC50 / pIC50: read-out: IC50 (half-maximal inhibitory concentration), CHO-K1; for pIC50: value in brackets
Description: as §2

OVCAR-3 cells = assay: MTT cell viability, dose-response curves 24 h; assay type: cell-based; conditions: for IC50 / pIC50: read-out: IC50 (half-maximal inhibitory concentration), OVCAR-3; for pIC50: value in brackets
Description: as §2

[4] = tested on: ovarian cancer tumoral lesions; parameters: method as in PMID 32276584; conditions: 50 mg/kg, peritumoral route; cited from earlier work
[5] = Homo sapiens, SK-OV-3, MTT, 24 h
[6] = Homo sapiens, Caco-2, MTT, 24 h
[7] = Homo sapiens, BEAS-2B, MTT, read-out: IC50 (half-maximal inhibitory concentration), BEAS-2B
[8] = Homo sapiens, BEAS-2B, MTT, value in brackets, read-out: IC50 (half-maximal inhibitory concentration), BEAS-2B
[9] = Cricetulus griseus, CHO-K1, 24 h, MTT, 24 h
[10] = Homo sapiens, OVCAR-3, MTT, 24 h

N.N.O=C([O-])C1(C(=O)[O-])CCC1.[Pt+2] [Carboplatin, carboplatin]
Kidneys weight ([1]; 1X PBS 0.38 ± 0.042): 0.40 ± 0.01 g | Liver weight ([1]; 1X PBS 1.53 ± 0.14): 1.80 ± 0.10 g | Kidneys larger diameter ([1]; 1X PBS 9.34 ± 0.67): 11.5 ± 0.7 mm | Liver larger diameter ([1]; 1X PBS 29.65 ± 2.22): 30.5 ± 2.2 mm | PCT (plateletcrit) ([2]; 1× PBS 0.55 ± 0.30): 0.55 ± 0.29 | Creatinine ([2]; 1× PBS 0.65 ± 0.2): 0.37 ± 0.26 mg/dL | Total bilirubin ([2]; 1× PBS 0.67 ± 0.16): 0.58 ± 0.2 mg/dL | Albumin ([2]; 1× PBS 1.36 ± 0.21): 1.33 ± 0.29 g/dL | Protein ([2]; 1× PBS 4.7 ± 0.56): 5.1 ± 1.46 g/dL | Erythrocytes ([2]; 1× PBS 7.92 ± 1.93): 7.81 ± 0.88 ×10^6/mm^3 | Hemoglobin ([2]; 1× PBS 14.4 ± 2.13): 13.1 ± 1.61 g/dL | ALT (GPT) ([2]; 1× PBS 40.75 ± 14.5): 64.4 ± 6.87 U/L | Hematocrit ([2]; 1× PBS 44.52 ± 2.17): 40.57 ± 4.16% | Urea ([2]; 1× PBS 47.9 ± 7.16): 59.4 ± 9.99 mg/dL | Alkaline phosphatase ([2]; 1× PBS 71 ± 10.36): 66.6 ± 15.6 U/L | Glucose ([2]; 1× PBS 78.3 ± 16.6): 107 ± 14.8 mg/dL | Cholesterol ([2]; 1× PBS 85.5 ± 13.4): 108.6 ± 19.4 mg/dL | Triglycerides ([2]; 1× PBS 87.6 ± 12.01): 103.7 ± 12.7 mg/dL | AST (GOT) ([2]; 1× PBS 149.8 ± 27.29): 162.9 ± 8.2 U/L | Fibrosis of tumor lesion ([3]; 1× PBS +): + | Vascularity of tumor lesion ([3]; 1× PBS +++): + | Morphology of tumor lesion ([3]; 1× PBS Cystic): Solid | necrosis percentage of tumor lesion (imaging) ([3]; Figure 3A, vehicle 35.16%): 5.19% | Tumor lesion weight ([3]; end of 28 days treatment, 1× PBS 0.34 ± 0.09): 0.14 ± 0.06 g | Tumor lesion larger diameter ([3]; end of 28 days treatment, 1× PBS 14.53 ± 2.4): 3.70 ± 0.26 mm | Tumor volume ([3]; end of 28 days treatment, 1× PBS 373.3 ± 18.1): 137.3 ± 18.6 * mm^3

COC(=O)c1cc(O)c(O)c(O)c1 [Compound 2, methyl 3,4,5-trihydroxybenzoate]
IC50 (SKOV-3 cells; [5]): > 200 µg/mL | pIC50 (SKOV-3 cells; [5]): < 2.96 | IC50 (CACO-2 cells; [6]): 100 µg/mL | pIC50 (CACO-2 cells; [6]): 3.27 | IC50 (BEAS-2B cells; [7]): 200 µg/mL | pIC50 (BEAS-2B cells; [8]): 2.96 | IC50 (CHO-K1 cells; [9]): 130 µg/mL | pIC50 (CHO-K1 cells; [9]): 3.15 | IC50 (OVCAR-3 cells; [10]): > 200 µg/mL | pIC50 (OVCAR-3 cells; [10]): < 2.96

O=c1c(O)c(-c2cc(O)c(O)c(O)c2)oc2cc(O)cc(O)c12 [Compound 5, myricetin]
IC50 (SKOV-3 cells; [5]): 166 µg/mL | pIC50 (SKOV-3 cells; [5]): 3.28 | IC50 (CACO-2 cells; [6]): 62 µg/mL | pIC50 (CACO-2 cells; [6]): 3.71 | pIC50 (BEAS-2B cells; [8]): 3.70 | IC50 (half-maximal inhibitory concentration), BEAS-2B (BEAS-2B cells; MTT): 64 µg/mL (≈ 201 µM) | IC50 (half-maximal inhibitory concentration), BEAS-2B (BEAS-2B cells; MTT, listed as Myr): ~ 150 μg/mL | pIC50 (CHO-K1 cells; [9]): 3.98 | IC50 (half-maximal inhibitory concentration), CHO-K1 (CHO-K1 cells; MTT, 24 h): 33 µg/mL (≈ 104 µM) | IC50 (half-maximal inhibitory concentration), CHO-K1 (CHO-K1 cells; MTT, 24 h, listed as Myr): ~ 150 μg/mL | IC50 (OVCAR-3 cells; [10]): 94 µg/mL | pIC50 (OVCAR-3 cells; [10]): 3.53 | inhibition of tumoral lesions (of progression) [4]: 50%

O=c1c(O)c(-c2ccc(O)c(O)c2)oc2cc(O)cc(O)c12 [Compound 9, quercetin]
IC50 (SKOV-3 cells; [5]): > 200 µg/mL | pIC50 (SKOV-3 cells; [5]): < 3.18 | IC50 (CACO-2 cells; [6]): 150 µg/mL | pIC50 (CACO-2 cells; [6]): 3.30 | IC50 (BEAS-2B cells; [7]): 189 µg/mL | pIC50 (BEAS-2B cells; [8]): 3.20 | IC50 (CHO-K1 cells; [9]): 127 µg/mL | pIC50 (CHO-K1 cells; [9]): 3.38 | IC50 (OVCAR-3 cells; [10]): 200 µg/mL | pIC50 (OVCAR-3 cells; [10]): 3.18

C[C@@H]1O[C@@H](Oc2c(-c3ccc(O)c(O)c3)oc3cc(O)cc(O)c3c2=O)[C@H](O)[C@H](O)[C@H]1O [Compound 12, quercitrin]
IC50 (SKOV-3 cells; Homo sapiens, SK-OV-3, 24 h): > 200 µg/mL and > 446 µM | IC50 (CACO-2 cells; Homo sapiens, Caco-2, 24 h): 179 µg/mL and 399 µM | IC50 (BEAS-2B cells; Homo sapiens, BEAS-2B, read-out: IC50 (half-maximal inhibitory concentration), BEAS-2B): > 200 µg/mL and > 446 µM | IC50 (CHO-K1 cells; Cricetulus griseus, CHO-K1, 24 h): > 200 µg/mL and > 446 µM | IC50 (OVCAR-3 cells; Homo sapiens, OVCAR-3, 24 h): > 200 µg/mL and > 446 µM

O=c1c(O)c(-c2ccc(O)c(O)c2)oc2cc(O)ccc12 [Compound 16, fisetin]
IC50 (SKOV-3 cells; [5]): 200 µg/mL | pIC50 (SKOV-3 cells; [5]): 3.16 | IC50 (CACO-2 cells; [6]): 100 µg/mL | pIC50 (CACO-2 cells; [6]): 3.46 | IC50 (BEAS-2B cells; [7]): 50 µg/mL | pIC50 (BEAS-2B cells; [8]): 3.76 | IC50 (CHO-K1 cells; [9]): 46 µg/mL | pIC50 (CHO-K1 cells; [9]): 3.79 | IC50 (OVCAR-3 cells; [10]): 200 µg/mL | pIC50 (OVCAR-3 cells; [10]): 3.16

myricitrin [Compound 6]
IC50 (half-maximal inhibitory concentration), SKOV-3 (SKOV-3 cells; MTT, 24 h): 197 µg/mL | pIC50 (SKOV-3 cells; MTT, 24 h): 3.37 | IC50 (half-maximal inhibitory concentration), CACO-2 (CACO-2 cells; MTT, 24 h): > 200 µg/mL | pIC50 (CACO-2 cells; MTT, 24 h): < 3.37 | IC50 (half-maximal inhibitory concentration), BEAS-2B (BEAS-2B cells; MTT): 160 µg/mL | pIC50 (BEAS-2B cells; read-out: IC50 (half-maximal inhibitory concentration), BEAS-2B, MTT, value in brackets): 3.46 | IC50 (half-maximal inhibitory concentration), CHO-K1 (CHO-K1 cells; MTT, 24 h): 94 µg/mL | pIC50 (CHO-K1 cells; MTT, 24 h): 3.69 | IC50 (half-maximal inhibitory concentration), OVCAR-3 (OVCAR-3 cells; MTT, 24 h): 200 µg/mL | pIC50 (OVCAR-3 cells; MTT, 24 h): 3.37
